Laboratory results as given in patent US20060014835A1, “Therapeutic agent for chronic obstructive pulmonary disease” (priority 2002, published 2006).

Test system: rat
Test: single oral administration toxicity to rat (minimum lethal dose)
Assay type: in vivo
Procedure: The toxicity of the compounds of the present invention is very low and therefore, the compounds may be considered safe for pharmaceutical use. For example, a minimum of lethal dose of N-hydroxy-5-hydroxy-2(S)-methyl-4(S) (4-phenoxybenzoyl)aminopentanamide and N-hydroxy-5-ethoxymethyloxy-2(S)-methyl-4(S)-(4-phenoxybenzoyl)aminopentanamide by single oral administration to rat was 2000 mg/kg.

Row | SMILES | minimum of lethal dose
1 | C[C@@H](C[C@@H](CO)NC(=O)c1ccc(Oc2ccccc2)cc1)C(=O)NO [Compound (1), N-hydroxy-5-hydroxy-2 (S)-methyl-4(S)-(4-phenoxybenzoyl) aminopentanamide] | 2000 mg/kg
2 | CCOCOC[C@H](C[C@H](C)C(=O)NO)NC(=O)c1ccc(Oc2ccccc2)cc1 [Compound (2), N-hydroxy 5-ethoxymethyloxy-2(S)-methyl-4(S)-(4-phenoxybenzoyl) aminopentanamide] | 2000 mg/kg
